# Assay results published in patent publication US10953107B2, “Polypeptide compositions and methods for site-specific targeting of therapeutic agents” (Trustees of Boston University, priority 2018, dated 2021).
# pIC50: −log10 of the molar value. Where two headings read alike, the source gives them in different places.
# Assays:
# [1] = Circular dichroism (CD): specificity and structural assembly of peptides; format: physicochemical; details: circular dichroism (FIG. 2A, FIG. 14A)
# Description: We designed and prepared peptide sequences that form a tetrameric coiled coil,^14,15 but discourage self-interaction (positively charged amino acids in docking, negatively charged in receiving).
# [2] = first value of 'x vs. y', second value is an unnamed comparator arm, cited from earlier work; for OS: overall survival; for PFS: progression-free survival
# MIA PaCa2 = assay: ADC cytotoxicity, MTT cell viability assay; format: cell-based, human
# Description: (§1) Cell viability was assessed by an MTT assay in Panc1 cells and other cell lines at 72 hours post-treatment with increasing concentrations of the ADC and relevant controls. The assay confluence was 20% at the start and up to 60% confluence.
# (§2) Cell viability was assessed by an MTT assay in other pancreatic cancer cell lines.
# (§3) Cell viability was assessed by an MTT assay in pancreatic cancer cell lines at 72 hours post-treatment with increasing concentrations of the ADC and relevant controls.
# Panc1 Cells [3] = assay: ADC cytotoxicity, MTT cell viability assay; format: cell-based, human
# Panc1 Cells [4] = assay: Cell viability in response to increasing doses of mertansine (FIG. 19); format: cell-based, human; details: cell viability (FIG. 19)
# Description: (§4) Cell viability was measured in response to increasing doses of mertansine in Panc1 and MIA PaCa2 cell lines to determine the IC50 compared to other chemotherapeutic agents (gemcitabine and Nab-paclitaxel) (FIG. 19). Panc1 cells are a human pancreatic cancer cell line isolated from a pancreatic carcinoma of ductal cell origin. MIA PaCa-2 cells are another type of pancreatic cancer cell line that was derived from the carcinoma of a patient.
# MIA PaCa2 Cells = assay: as above; format: cell-based, human; details: cell viability (FIG. 19)
# Description: as §4
# Capan-1 = assay: ADC cytotoxicity, MTT cell viability assay; format: cell-based, human
# Description: as §1, §2, §3
# H6c7 = assay: ADC cytotoxicity in normal cell lines, MTT assay; format: cell-based; details: H6c7, additional characterization (FIG. 41)
# BxPC-3 = assay: ADC cytotoxicity, MTT cell viability assay; format: cell-based
# Description: as §1, §2, §3
# BJ fibroblasts = assay: ADC cytotoxicity in normal cell lines, MTT assay
# Description: (§5) Cell viability was assessed by an MTT assay in KV2 cells and other normal cell lines at 72 hours post-treatment with increasing concentrations of the ADC and relevant controls.
# (§6) Cell viability was assessed by an MTT assay in normal cell lines at 72 hours post-treatment with increasing concentrations of the ADC and relevant controls.
# mIMCD = assay: ADC cytotoxicity in normal cell lines, MTT assay
# Description: as §5, §6
# KV2 cells = assay: ADC cytotoxicity in normal cell lines, MTT assay; details: read-out: IC50 / cytotoxicity
# Description: as §5, §6
# HUVECs = assay: ADC cytotoxicity in normal cell lines, MTT assay; details: read-out: IC50 / cytotoxicity; HUVEC, additional characterization (FIG. 41)
# Description: as §5, §6
# [5] = read-out: IC50 / cytotoxicity, MTT (FIG. 32), NS = not significantly different from 100% viability of control
# [6] = read-out: IC50 / cytotoxicity, additional characterization (FIG. 41)
compound,measurement,setting,value
MK(LKKIKSV)4VGER [Peptide V/K],self-assembly / coiled coil formation,[1],do not self-assemble
"MK(LEEIVSE)2LEEIVTELEEIVSEVGER (MKLEEIVSELEEIVSELEEIVTELEEIVSEVGER) [Peptide V/E, acidic V/E-type docking peptide]",self-assembly / coiled coil formation,[1],do not self-assemble
Nimotuzumab,OS,[2],8.6 vs. 6.0 mo
same,PFS,[2],5.3 vs. 3.6 mo
Cixutumumab,OS,[2],7.0 vs. 6.7 mo
same,PFS,[2],3.6 vs 3.6 mo
C#Cc1cccc(Nc2ncnc3cc(OCCOC)c(OCCOC)cc23)c1 [Erlotinib],OS,[2],6.2 vs. 5.9 mo
same,PFS,[2],3.8 vs. 3.6 mo
Nc1ccn([C@@H]2O[C@H](CO)[C@@H](O)C2(F)F)c(=O)n1 [Gemcitabine],pIC50,"MIA PaCa2; Homo sapiens, MIA PaCa-2, MIA PaCa2, MTT (FIG. 29-30)",6.59
same,pIC50,"Panc1 Cells [3]; Homo sapiens, PANC-1, Panc1, MTT, 72 hours (FIG. 28)",6.15
"COc1cc2cc(c1Cl)N(C)C(=O)C[C@H](OC(=O)[C@H](C)N(C)C(=O)CCS)[C@]1(C)O[C@H]1[C@H](C)[C@@H]1C[C@@](O)(NC(=O)O1)[C@H](OC)/C=C/C=C(\C)C2 [Mertansine, mertansine]",pIC50,Panc1 Cells [4],8.92
same,pIC50,MIA PaCa2 Cells,9.57
same,pIC50,"MIA PaCa2; MIA PaCa2, MTT (FIG. 29-30)",9.51
same,pIC50,"MIA PaCa2; MIA PaCa2, additional characterization (FIG. 39)",9.51
same,pIC50,"Capan-1; Capan-1, MTT (FIG. 30)",7.66
same,pIC50,"Capan-1; Capan-1, additional characterization (FIG. 39)",7.66
same,pIC50,H6c7,8.62
same,pIC50,"BxPC-3; BxPC-3, MTT (FIG. 30)",7.73
same,pIC50,"BxPC-3; BxPC-3, additional characterization (FIG. 39)",7.73
same,pIC50,"Panc1 Cells [3]; Panc1, MTT, 72 hours (FIG. 28-30)",8.70
same,pIC50,"Panc1 Cells [3]; Panc1, additional characterization (FIG. 39)",8.70
same,pIC50,BJ fibroblasts; [5],7.77
same,pIC50,BJ fibroblasts; [6],7.77
same,pIC50,mIMCD; [5],8.52
same,pIC50,mIMCD; [6],8.52
same,pIC50,"KV2 cells; KV2, additional characterization (FIG. 41)",6.54
same,pIC50,"KV2 cells; KV-2, MTT, 72 hours (FIG. 31-32), NS = not significantly different from 100% viability of control",7.02
same,pIC50,HUVECs,8.57
